Data published in patent US7829589B2, “Sulfonamide compounds and uses thereof” (Elixir Pharmaceuticals, Inc., priority 2005, dated 2010).
pKi: −log10 of the molar value.

Molecular target: GHS-R (Homo sapiens, UniProt Q92847)
Test: GHS-R antagonist activity (Ki) in a cell based assay
Protocol: Cell-Based Activity Assays. For example, the ability of the compound to modulate accumulation of a second messenger signaling component downstream of GHS-R can be evaluated. For example, inositol phosphates (IP), as a result of Gq signaling in a mammalian cell, e.g., a Cos-7 cells. Other tissue culture cells, Xenopus oocytes, and primary cells can also be used.
Phosphatidylinositol turnover assay. One day after transfection COS-7 cells are incubated for 24 hours with 5 μCi of [^3H]-myo-inositol in 1 ml medium supplemented with 10% fetal calf serum, 2 mM glutamine and 0.01 mg/ml gentamicin per well. Cells are then washed twice in buffer, 20 mM HEPES, pH 7.4, supplemented with 140 mM NaCl, 5 mM KCl, 1 mM MgSO4, 1 mM CaCl2, 10 mM glucose, 0.05% (w/v) bovine serum; and incubated in 0.5 ml buffer supplemented with 10 mM LiCl at 37° C. for 30 min. For some assays, it is also useful to incubate the cells with adenosine deaminase ADA (200 U/mg, Boehringer Mannheim, Germany) for 30 min in a concentration of 1 U/ml.
After incubation with the compound of interest for 45 min at 37° C., cells are extracted with 10% ice-cold perchloric acid and placed on ice for 30 min. The resulting supernatants are neutralized with KOH in HEPES buffer, and [^3H]-inositol phosphate is purified on Bio-Rad AG 1-X8 anion exchange resin as described. Assays can be run in duplicate, triplicate, etc. […]

Sequence of GHS-R (Q92847 whole entry, species assumed): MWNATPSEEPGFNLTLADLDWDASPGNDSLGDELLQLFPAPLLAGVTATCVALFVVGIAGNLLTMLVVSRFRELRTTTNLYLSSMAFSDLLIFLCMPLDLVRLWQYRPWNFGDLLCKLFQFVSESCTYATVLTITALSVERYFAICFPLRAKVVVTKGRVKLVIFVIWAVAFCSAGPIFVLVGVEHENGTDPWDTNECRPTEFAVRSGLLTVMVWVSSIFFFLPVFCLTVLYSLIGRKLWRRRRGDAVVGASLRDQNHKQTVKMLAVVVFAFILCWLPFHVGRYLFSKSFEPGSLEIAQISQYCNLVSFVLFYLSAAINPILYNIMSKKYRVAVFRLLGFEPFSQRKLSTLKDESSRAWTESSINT

Compound	pKi
3-Diethylamino-propane-1-sulfonic acid {(R)-1-[3-(5-bromo-pyridin-3-yl)-[1,2,4]oxadiazol-5-yl]-phenyl-propyl}-amide [Compound 103]	6.30 to 7.00
CCN(CC)CCCS(=O)(=O)N[C@H](COCc1ccccc1)c1nc(-c2ccccc2)no1 [Compound 1, 3-Diethylamino-propane-1-sulfonic acid [(R)-2-benzyloxy-1-(3-phenyl-[1,2,4]oxadiazol-5-yl)-ethyl]-amide]	6.00 to 6.30
CCN(CC)CCCS(=O)(=O)N[C@H](COCc1ccccc1)c1nc(-c2c(Cl)cccc2Cl)no1 [Compound 2, 3-Diethylamino-propane-1-sulfonic acid {(R)-2-benzyloxy-1-[3-(2,6-dichloro-phenyl)-[1,2,4]oxadiazol-5-yl]-ethyl}-amide]	> 7.00
CCN(CC)CCCS(=O)(=O)N[C@H](CCc1ccccc1)c1nc(-c2cccc(Cl)c2Cl)n[nH]1 [Compound 3, 3-Diethylamino-propane-1-sulfonic acid {(R)-1-[5-(2,3-dichloro-phenyl)-2H-[1,2,4]triazol-3-yl]-3-phenyl-propyl}-amide]	> 7.00
CCN(CC)CCCS(=O)(=O)N[C@H](CCc1ccccc1)c1nc(-c2ccccc2C)no1 [Compound 4, 3-Diethylamino-propane-1-sulfonic acid [(R)-3-phenyl-1-(3-o-tolyl-[1,2,4]oxadiazol-5-yl)-propyl]-amide]	> 7.00
CCN(CC)CCCS(=O)(=O)N[C@H](CCc1ccccc1)c1nc(Cc2ccc(F)cc2)n[nH]1 [Compound 5, 3-Diethylamino-propane-1-sulfonic acid {(R)-1-[5-(4-fluoro-benzyl)-2H-[1,2,4]triazol-3-yl]-3-phenyl-propyl}-amide]	> 7.00
CCN(CC)CCCS(=O)(=O)N[C@H](CCc1ccccc1)c1nc(-c2ccccc2)no1 [Compound 6, 3-Diethylamino-propane-1-sulfonic acid [(R)-3-phenyl-1-(3-phenyl-[1,2,4]oxadiazol-5-yl)-propyl]-amide]	> 7.00
CCN(CC)CCCS(=O)(=O)N[C@H](CCc1ccccc1)c1nc(-c2ccsc2)n[nH]1 [Compound 7, 3-Diethylamino-propane-1 sulfonic acid [(R)-3-phenyl-1-(5-thiophen-3-yl-2H-[1,2,4]triazol-3-yl)-propyl]-amide]	> 7.00
CCN(CC)CCCS(=O)(=O)N[C@H](CCc1ccccc1)c1nc(-c2c(F)cc(F)cc2F)n[nH]1 [Compound 8, 3-Diethylamino-propane-1-sulfonic acid {(R)-3-phenyl-1-[5-(2,4,6-trifluoro-phenyl)-2H-[1,2,4]triazol-3-yl]-propyl}-amide]	> 7.00
CCN(CC)CCCS(=O)(=O)N[C@H](CCc1ccccc1)c1nc(-c2ncccc2C)no1 [Compound 9, 3-Diethylamino-propane-1-sulfonic acid {(R)-1-[3-(3-methyl-pyridin-2-yl)-[1,2,4]oxadiazol-5-yl]-3-phenyl-propyl}-amide]	6.30 to 7.00
CCN(CC)CCCS(=O)(=O)N[C@H](CCc1ccccc1)c1nc(-c2c(C)cccc2Cl)no1 [Compound 10, 3-Diethylamino-propane-1-sulfonic acid {(R)-1-[3-(2-chloro-6-methyl-phenyl)-[1,2,4]oxadiazol-5-yl]-3-phenyl-propyl}-amide]	6.30 to 7.00
CCN(CC)CCCS(=O)(=O)N[C@H](CCc1ccccc1)c1nc(-c2ccc3c(c2)OCO3)n[nH]1 [Compound 11, 3-Diethylamino-propane-1-sulfonic acid [(R)-1-(5-benzo[1,3]dioxol-5-yl-2H-[1,2,4]triazol-3-yl)-3-phenyl-propyl]-amide]	> 7.00
CCN(CC)CCCS(=O)(=O)N[C@H](CCc1ccccc1)c1nc(-c2c(Cl)cccc2Cl)no1 [Compound 12, 3-Diethylamino-propane-1-sulfonic acid {(R)-1-[3-(2,6-dichloro-phenyl)-[1,2,4]oxadiazol-5-yl]-3-phenyl-propyl}-amide]	> 7.00
CCN(CC)CCS(=O)(=O)N[C@H](CCc1ccccc1)c1nc(-c2ccccc2C)no1 [Compound 13, 2-Diethylamino-ethanesulfonic acid [(R)-3-phenyl-1-(3-o-tolyl-[1,2,4]oxadiazol-5-yl)-propyl]-amide]	6.00 to 6.30
CCN(CC)CCS(=O)(=O)N[C@H](CCc1ccccc1)c1nc(-c2ncccc2C)no1 [Compound 14, 2-Diethylamino-ethanesulfonic acid {(R)-1-[3-(3-methyl-pyridin-2-yl)-[1,2,4]oxadiazol-5-yl]-3-phenyl-propyl}-amide]	6.30 to 7.00
CCN(CC)CCCS(=O)(=O)N[C@H](CCc1ccccc1)c1nc(-c2cccc(F)c2)n[nH]1 [Compound 15, 3-Diethylamino-propane-1-sulfonic acid {(R)-1-[5-(3-fluoro-phenyl)-2H-[1,2,4]triazol-3-yl]-3-phenyl-propyl}-amide]	> 7.00
CCN(CC)CCCS(=O)(=O)N[C@H](CCc1ccccc1)c1nc(-c2ccccc2OC)no1 [Compound 16, 3-Diethylamino-propane-1-sulfonic acid {(R)-1-[3-(2-methoxy-phenyl)-[1,2,4]oxadiazol-5-yl]-3-phenyl-propyl}-amide]	6.00 to 6.30
CCN(CC)CCS(=O)(=O)N[C@H](CCc1ccccc1)c1nc(-c2ccccc2)no1 [Compound 17, 2-Diethylamino-ethanesulfonic acid [(R)-3-phenyl-1-(3-phenyl-[1,2,4]oxadiazol-5-yl)-propyl]-amide]	6.30 to 7.00
CCN(CC)CCS(=O)(=O)N[C@H](CCc1ccccc1)c1nc(-c2c(Cl)cccc2Cl)no1 [Compound 18, 2-Diethylamino-ethanesulfonic acid {(R)-1-[3-(2,6-dichloro-phenyl)-[1,2,4]oxadiazol-5-yl]-3-phenyl-propyl}-amide]	6.30 to 7.00
CCN(CC)CCS(=O)(=O)N[C@H](CCc1ccccc1)c1nc(-c2ccccc2OC)no1 [Compound 19, 2-Diethylamino-ethanesulfonic acid {(R)-1-[3-(2-methoxy-phenyl)-[1,2,4]oxadiazol-5-yl]-3-phenyl-propyl}-amide]	≤ 6.00
CCN(CC)CCCS(=O)(=O)N[C@H](CCc1ccccc1)c1nc(-c2ccc3[nH]ccc3c2)n[nH]1 [Compound 20, 3-Diethylamino-propane-1-sulfonic acid {(R)-1-[5-(1H-indol-5-yl)-2H-{1,2,4]triazol-3-yl]-3-phenyl-propyl}-amide]	> 7.00
CCN(CC)CCCS(=O)(=O)N[C@@H](CCc1ccccc1)c1nc(-c2ccccc2C)no1 [Compound 21, 3-Diethylamino-propane-1-sulfonic acid [(S)-3-phenyl-1-(3-o-tolyl-[1,2,4]oxadiazol-5-yl)-propyl]-amide]	6.30 to 7.00
CCN(CC)CCCS(=O)(=O)N[C@H](CCc1ccccc1)c1nc(-c2ccc(Cl)cc2)n[nH]1 [Compound 22, 3-Diethylamino-propane-1-sulfonic acid {(R)-1-[5-(4-chloro-phenyl)-2H-[1,2,4]triazol-3-yl]-3-phenyl-propyl}-amide]	> 7.00
CCN(CC)CCCS(=O)(=O)N[C@H](CCc1ccccc1)c1nc(-c2ccccc2)n[nH]1 [Compound 23, 3-Diethylamino-propane-1-sulfonic acid [(R)-3-phenyl-1-(5-phenyl-2H-[1,2,4]triazol-3-yl)-propyl]-amide]	> 7.00
